Source: EP4640238A1, “THERAPEUTIC AGENT FOR PULMONARY DISEASE, HEPATIC DISEASE OR RENAL DISEASE, WHICH CONTAINS PGAM-CHK1 BINDING INHIBITOR” (Kyoto University, priority 2022, dated 2024)

Assays:
[1] = system: BLM pulmonary fibrosis model mice; assay: Survival rate in BLM pulmonary fibrosis model mice; format: in vivo, C57BL6 mice; settings: 2.5 mg/kg bleomycin intratracheally; 20 mg/kg nutlin 3b intraperitoneally 4 times a week for 2 weeks from day 8; deaths within 21 days; versus solvent only
Description: 2.5 mg/kg of bleomycin was intratracheally administered to 10- to 12-week old C57BL6 mice. Starting 8 days after bleomycin administration, 20 mg/kg of nutlin 3b or the solvent alone was intraperitoneally administered 4 times a week for 2 weeks. The mice were checked for survival every day, and the number of mice that died within 21 days after bleomycin administration was counted. In this test, 6 mice in the nutlin 3b non-administration group (solvent only) and 7 mice in the nutlin 3b administration group were used. […] In the figure, 3B indicates nutlin 3b. The same applies to the following figures.

[2] = system: fibrosis-related genes (Col1a2, Col5a2, Fibronectin, and Toropelastin); assay: Expression of fibrosis-related mRNA in lung tissue of BLM pulmonary fibrosis model mice (real-time PCR); format: in vivo, ICR mice; settings: lung tissue 21 days after 2.5 mg/kg bleomycin; 14, 20, and 24 mg/kg intraperitoneally 4 times a week for 2 weeks; versus solvent
Description: 2.5 mg/kg of bleomycin was intratracheally administered to 10- to 12-week old ICR mice. Starting 8 days after bleomycin administration, 14, 20, and 24 mg/kg of nutlin 3b or the solvent alone were intraperitoneally administered 4 times a week for 2 weeks. 21 days after bleomycin administration, mice in the nutlin 3b administration group or solvent administration group were sacrificed to sample their lung tissue. In the test, 3 mice in the nutlin 3b non-administration group (solvent only) and 3 mice in the nutlin 3b administration group were used. The same applies to the following tests. The collected lung tissue was immersed in a sufficient amount of RNAlater and stored at 4°C overnight. The next day, the lung tissue was removed from the RNAlater, and the total RNA was collected using TRIzole. Then, mRNA was reverse-transcribed using a ReverTra Ace qPCR RT kit to prepare cDNA. Real-time PCR was performed on the prepared cDNA using primers specific to fibrosis-related genes (Col1a2, Col5a2, Fibronectin, and Toropelastin).

[3] = system: BLM pulmonary fibrosis model mice; assay: Pathological comparison: Masson's trichrome staining of lung tissue, quantification of fibrosis regions; format: in vivo, ICR mice; settings: blue area quantified, 14, 20, and 24 mg/kg intraperitoneally 4 times a week for 2 weeks, day 21 after bleomycin
Description: 2.5 mg/kg of bleomycin was intratracheally administered to 10- to 12-week old ICR mice. Starting 8 days after bleomycin administration, 14, 20, and 24 mg/kg of nutlin 3b or the solvent alone were intraperitoneally administered 4 times a week for 2 weeks. 21 days after bleomycin administration, mice in the nutlin 3b administration group or solvent administration group were sacrificed to sample their lung tissue. The lung tissue was fixed by treatment with 4% paraformaldehyde for 48 hours. The fixed lung tissue was embedded in paraffin, and then sliced into 5 µm thin slices, and set on microscope slides. Masson's trichrome staining was performed on the thin slices of the lung tissue to evaluate fibrosis. Specifically, in Masson's trichrome staining, nuclei are stained black-brown with iron hematoxylin staining, cytoplasm is stained red with […], and collagen fibers are stained blue with aniline blue. Accordingly, to evaluate fibrosis, the stained image was separated into the three primary colors using ImageJ (image analysis software), and the area which stained blue was quantified as the fibrosis regions. The obtained signals of each group were expressed as relative values to the control group (PBS + PEG). The results of Masson's trichrome staining are shown in Fig. 17-1, and the quantification results of the fibrosis regions are shown in Fig. 17-2.

[4] = system: FoxM1 and its downstream target genes (Plk1, Ccnb2, Aspm, and Cep55); assay: Expression of FoxM1 and its downstream target genes in lung tissue of BLM pulmonary fibrosis model mice (real-time PCR); format: in vivo, ICR mice; settings: lung tissue 21 days after 2.5 mg/kg bleomycin; 20 mg/kg intraperitoneally 4 times a week for 2 weeks; versus solvent
Description: The influence of the nutlin 3b administration to FoxM1 target factors in bleomycin-induced pulmonary fibrosis was examined. Specifically, 2.5 mg/kg of bleomycin was intratracheally administered to 10- to 12-week old ICR mice. Starting 8 days after bleomycin administration, 20 mg/kg of nutlin 3b or the solvent alone was intraperitoneally administered 4 times a week for 2 weeks. 21 days after bleomycin administration, mice in the nutlin 3b administration group and the solvent administration group were sacrificed to sample their lung tissue. In the test, 3 mice in the nutlin 3b non-administration group (solvent only) and 3 mice in the nutlin 3b administration group were used. The collected lung tissue was immersed in a sufficient amount of RNAlater and stored at 4°C overnight. The next day, the lung tissue was removed from the RNAlater, and the total RNA was collected using TRIzole. Then, mRNA was reverse-transcribed using a ReverTra Ace qPCR RT kit to prepare cDNA. Real-time PCR was performed on the prepared cDNA using primers specific to FoxM1 and its downstream target genes (Plk1, Ccnb2, Aspm, and Cep55).

aged mice [5] = assay: Effect on the lungs of aged mice (HE staining and p21 antibody staining); format: in vivo, C57BL/6J; settings: 20-month-old aged mice, once a week for 3 months; versus Vehicle
Description: (§1) Nutlin 3b was administered to C57BL/6J, 20-month-old aged mice once a week for 3 months. After 3 months, the mice were sacrificed, and HE staining and mRNA expression analysis of the lung tissue were performed. As a comparison subject, the lung tissue of young mice (C57BL/6J, 10-week old) and aged mice with no administration of nutlin 3b (Vehicle) were used.

aged mice [6] = assay: Effect on the kidneys of aged mice (HE staining, hyalinization, marker expression); format: in vivo, C57BL/6J; settings: 20-month-old aged mice, once a week for 3 months, versus Vehicle
Description: as §1, with “renal” for “lung”
Also, the increase in senescence markers and SASP markers induced in aged renal tissue was suppressed by nutlin 3b administration (Fig. 20-3).

PGAM-Chk1 binding = PGAM-Chk1 binding inhibition HTP screening using a Cell-base NanoBiT system (primary screening); format: cell-based
Text: Examples of a preferred method for measuring the binding level between PGAM and Chk1 include, in addition to the above, a method that uses PGAM and Chk1 labeled with tags that can bind to each other, and specific examples thereof include the following method that uses a Nanobit system. In Nanobit, a large subunit and a small subunit of a photoprotein prepared based on a luciferase are attached as tags to PGAM and Chk1, respectively. These tags have structures that can bind to each other. […] By measuring the intensity of the luminescence signal at this time, the binding level can be measured with high sensitivity and high quantitativity.
PGAM-Chk1 binding inhibition HTP (high-throughput) screening using a Cell-base NanoBiT system was carried out. Specifically, the screening was carried out by the following method. In NanoBiT, a large subunit and a small subunit of a photoprotein prepared based on a luciferase are attached as tags to PGAM and Chk1, respectively. These tags have structures that can bind to each other. […] By measuring the intensity of the luminescence signal at this time, the binding level can be measured with high sensitivity and high quantitativity. […] Therefore, a substance that inhibits the binding of PGAM and Chk1 was searched from the drug library, with the decrease in the luminescence signal as an indicator. […]

Row | Compound | survival rate [1] | expression of the fibrosis-related genes [2] | fibrosis areas induced by bleomycin in the lungs [3] | expression of FoxM1 target genes [4] | p21-positive cells in aged lung tissue (aged mice [5]) | increase in senescence markers and SASP markers induced in aged renal tissue (aged mice [6]) | glomerular hyalinization (four-level score) (aged mice [6]; HE staining of renal tissue) | interstitial hyalinization positive rate (aged mice [6]; HE staining of renal tissue) | luminescence signal (binding level between PGAM and Chk1) (PGAM-Chk1 binding)
1 | COc1ccc(C2=N[C@H](c3ccc(Cl)cc3)[C@H](c3ccc(Cl)cc3)N2C(=O)N2CCNC(=O)C2)c(OC(C)C)c1 [nutlin 3b, Nutlin-3b] | improved the survival rate | decreased | smaller than those of the control group | suppression of the expression of FoxM1 target genes was observed | significantly suppressed | suppressed | significant improvement in hyalinization | significant improvement in hyalinization | –
2 | nutlin | – | – | – | – | – | – | – | – | luminescence signal decreases
